Earlier results in patent publication US7109169B2, “Method for treating heart failure by inhibiting the sarcolemmal sodium/calcium exchange” (priority 2002, dated 2006).

N=C(N)SCCc1ccc(OCc2ccc([N+](=O)[O-])cc2)cc1 [KB-R7943]
mode of the Na/Ca exchanger inhibited (Na/Ca exchanger): predominantly the Ca-entry mode | specificity of action (Na/Ca exchanger; inhibits a variety of ion channels in the cardiac membrane): completely non-specific | effect on cardiac contractility (cardiac contractility): no effect
